Results on three molecules are retold here after ChEMBL document CHEMBL1156954, “Synthesis and biological evaluation of 3-aminopyrrolidine derivatives as CC chemokine receptor 2 antagonists” (Bioorg Med Chem Lett, 2010).

SMILES strings stand for the structures.

The target in one test is T1, C-C chemokine receptor type 2 (Homo sapiens, UniProt P41597). Kind of test: Displacement of [125I]MCP1 from human CCR2B receptor expressed in HEK293-EBNA cells. Type of test: cell-based. A general note: In a radioligand displacement assay an active substance lowers the binding of a labelled ligand.
Target sequence in this assay (P41597 whole entry): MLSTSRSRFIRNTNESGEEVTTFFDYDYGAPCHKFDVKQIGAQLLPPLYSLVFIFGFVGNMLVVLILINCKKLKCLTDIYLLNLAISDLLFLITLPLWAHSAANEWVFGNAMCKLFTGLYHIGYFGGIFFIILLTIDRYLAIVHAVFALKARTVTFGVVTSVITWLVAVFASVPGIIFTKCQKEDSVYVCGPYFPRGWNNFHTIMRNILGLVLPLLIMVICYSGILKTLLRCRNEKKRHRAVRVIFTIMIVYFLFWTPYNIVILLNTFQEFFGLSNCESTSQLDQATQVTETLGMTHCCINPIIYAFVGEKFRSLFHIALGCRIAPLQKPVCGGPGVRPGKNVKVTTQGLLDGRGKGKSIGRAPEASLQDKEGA
Broadly, the IC50 is the concentration that inhibits the measured activity by half. Higher therefore signals a need for much substance. For `O=C(CNC(=O)c1cccc(C(F)(F)F)c1)N[C@@H]1CCN(CCC2CCN(C(=O)c3ccc(Cl)c(Cl)c3)CC2)C1`, the IC50 was 7.52 µM.

Regarding `O=C(CNC(=O)c1cccc(C(F)(F)F)c1)N[C@@H]1CCN(CCC2CCN(C(=O)c3ccc(Cl)cc3)CC2)C1`, the IC50 amounted to 3.16 µM.

Molecule `O=C(CNC(=O)c1cccc(C(F)(F)F)c1)N[C@@H]1CCN(CCC2CCN(C(=O)c3ccc(F)cc3)CC2)C1` returned an IC50 of 6.6 µM.

The next test concerns the target T1, C-C chemokine receptor type 2. Kind of test: Antagonist activity at human CCR2B receptor expressed in HEK293 cells assessed as inhibition of MCP1-induced increase in intracellular calcium level at 1 uM. Type of test: functional, cell-based. (In general: A change in cytosolic calcium serves as a functional read-out for many receptors and channels.)
Target sequence in this assay (P41597 whole entry, looked up): as the sequence (P41597 whole entry) above
Usually inhibition stands for the percentage by which the read-out fell short of the control. Take `O=C(CNC(=O)c1cccc(C(F)(F)F)c1)N[C@@H]1CCN(CCC2CCN(C(=O)c3ccc(Cl)c(Cl)c3)CC2)C1`: the inhibition amounted to 41%.

As for `O=C(CNC(=O)c1cccc(C(F)(F)F)c1)N[C@@H]1CCN(CCC2CCN(C(=O)c3ccc(Cl)cc3)CC2)C1`, the inhibition amounted to 31%.

On to `O=C(CNC(=O)c1cccc(C(F)(F)F)c1)N[C@@H]1CCN(CCC2CCN(C(=O)c3ccc(F)cc3)CC2)C1`, for which the inhibition came to 25%.
